Reference: BindingDB's records for doi:10.1515/dmdi.1990.8.1-2.85 (Duphar, 1990)

Legend:
[1] = molecular target: 5-hydroxytryptamine receptor 3A (Mus musculus, UniProt P23979)
[2] = molecular target: Glycine amidinotransferase, mitochondrial (Rattus norvegicus, UniProt P50442)
[3] = molecular target: Pro-thyrotropin-releasing hormone (Rattus norvegicus, UniProt P01150)
[4] = molecular target: 5-hydroxytryptamine receptor 1B (Rattus norvegicus, UniProt P28564)
[5] = molecular target: Beta-1 adrenergic receptor (Rattus norvegicus, UniProt P18090)
[6] = molecular target: D(2) dopamine receptor (Rattus norvegicus, UniProt P61169)
[7] = molecular target: Gamma-aminobutyric acid receptor subunit alpha-1 (Rattus norvegicus, UniProt P62813)
[8] = molecular target: Muscarinic acetylcholine receptor M1 (Rattus norvegicus, UniProt P08482)
[9] = molecular target: Delta-type opioid receptor (Rattus norvegicus, UniProt P33533)
[10] = molecular target: Calcium release-activated calcium channel protein 1 (Homo sapiens, UniProt Q96D31)
[11] = molecular target: Mu-type opioid receptor (Rattus norvegicus, UniProt P33535)
[12] = molecular target: Sigma non-opioid intracellular receptor 1 (Rattus norvegicus, UniProt Q9R0C9)
[13] = molecular target: Alpha-1A adrenergic receptor (Rattus norvegicus, UniProt P43140)
[14] = molecular target: Cysteinyl leukotriene receptor 1 (Cavia porcellus, UniProt Q2NNR5)
[15] = molecular target: 5-hydroxytryptamine 1D receptor (Bos taurus, UniProt Q8MI13)
[16] = molecular target: Glutamate receptor ionotropic, NMDA 1 (Rattus norvegicus, UniProt P35439)
[17] = molecular target: Voltage-dependent calcium channel gamma-1 subunit (Homo sapiens, UniProt Q06432)
[18] = molecular target: Muscarinic acetylcholine receptor M2 (Rattus norvegicus, UniProt P10980)
[19] = molecular target: 5-hydroxytryptamine receptor 2A (Rattus norvegicus, UniProt P14842)
[20] = molecular target: Gastrin/cholecystokinin type B receptor (Rattus norvegicus, UniProt P30553)
[21] = molecular target: D(1A) dopamine receptor (Rattus norvegicus, UniProt P18901)
[22] = molecular target: Alpha-2C adrenergic receptor (Rattus norvegicus, UniProt P22086)
[23] = molecular target: Muscarinic acetylcholine receptor M3 (Rattus norvegicus, UniProt P08483)
[24] = molecular target: Protachykinin-1 (Rattus norvegicus, UniProt P06767)
[25] = molecular target: Histamine H1 receptor (Rattus norvegicus, UniProt P31390)
[26] = molecular target: 5-hydroxytryptamine receptor 2C (Sus scrofa, UniProt G7ZKZ7)
[27] = molecular target: Kappa-type opioid receptor (Rattus norvegicus, UniProt P34975)

Sequence of Voltage-dependent calcium channel gamma-1 subunit (Q06432 whole entry): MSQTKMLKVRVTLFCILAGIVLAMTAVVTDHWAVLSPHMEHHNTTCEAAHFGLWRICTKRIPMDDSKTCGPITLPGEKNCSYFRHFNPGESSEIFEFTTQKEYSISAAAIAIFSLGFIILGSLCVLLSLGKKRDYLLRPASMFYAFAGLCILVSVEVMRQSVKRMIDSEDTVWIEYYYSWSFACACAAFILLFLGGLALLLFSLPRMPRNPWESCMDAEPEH
Sequence of Calcium release-activated calcium channel protein 1 (Q96D31 whole entry): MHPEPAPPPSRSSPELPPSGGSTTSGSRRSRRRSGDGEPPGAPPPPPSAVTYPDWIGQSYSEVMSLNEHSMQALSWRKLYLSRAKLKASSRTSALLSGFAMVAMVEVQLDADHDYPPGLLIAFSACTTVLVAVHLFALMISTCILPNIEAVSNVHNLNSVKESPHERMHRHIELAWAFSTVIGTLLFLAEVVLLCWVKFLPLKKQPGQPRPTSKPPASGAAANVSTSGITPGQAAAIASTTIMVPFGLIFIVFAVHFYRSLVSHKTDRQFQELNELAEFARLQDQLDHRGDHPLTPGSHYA
Sequence of Muscarinic acetylcholine receptor M1 (P08482 whole entry): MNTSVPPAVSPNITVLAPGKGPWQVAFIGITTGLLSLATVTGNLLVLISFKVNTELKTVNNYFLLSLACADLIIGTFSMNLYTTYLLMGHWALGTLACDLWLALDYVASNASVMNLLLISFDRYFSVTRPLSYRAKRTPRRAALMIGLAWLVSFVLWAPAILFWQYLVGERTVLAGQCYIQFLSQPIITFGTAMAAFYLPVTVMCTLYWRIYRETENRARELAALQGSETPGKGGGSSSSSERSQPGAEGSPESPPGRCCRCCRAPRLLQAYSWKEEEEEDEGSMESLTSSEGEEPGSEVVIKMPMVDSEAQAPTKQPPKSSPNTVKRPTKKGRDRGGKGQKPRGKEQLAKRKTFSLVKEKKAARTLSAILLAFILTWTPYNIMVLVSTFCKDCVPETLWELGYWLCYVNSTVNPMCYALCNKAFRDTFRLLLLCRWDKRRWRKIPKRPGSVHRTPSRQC
Sequence of 5-hydroxytryptamine receptor 3A (P23979 as listed by the source): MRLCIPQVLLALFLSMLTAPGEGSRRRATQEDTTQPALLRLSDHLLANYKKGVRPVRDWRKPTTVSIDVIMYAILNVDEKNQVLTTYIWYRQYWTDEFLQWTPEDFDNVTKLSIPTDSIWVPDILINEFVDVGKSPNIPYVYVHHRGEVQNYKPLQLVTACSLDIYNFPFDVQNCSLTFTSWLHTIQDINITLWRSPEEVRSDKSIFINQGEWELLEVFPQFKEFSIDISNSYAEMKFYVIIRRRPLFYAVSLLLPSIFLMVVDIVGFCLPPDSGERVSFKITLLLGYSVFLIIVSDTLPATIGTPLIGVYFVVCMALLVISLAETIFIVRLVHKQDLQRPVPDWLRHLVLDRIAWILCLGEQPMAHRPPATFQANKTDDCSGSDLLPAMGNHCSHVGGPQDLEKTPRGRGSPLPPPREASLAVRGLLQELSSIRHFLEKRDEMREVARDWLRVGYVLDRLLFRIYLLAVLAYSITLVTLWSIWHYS
Sequence of Mu-type opioid receptor (P33535 whole entry): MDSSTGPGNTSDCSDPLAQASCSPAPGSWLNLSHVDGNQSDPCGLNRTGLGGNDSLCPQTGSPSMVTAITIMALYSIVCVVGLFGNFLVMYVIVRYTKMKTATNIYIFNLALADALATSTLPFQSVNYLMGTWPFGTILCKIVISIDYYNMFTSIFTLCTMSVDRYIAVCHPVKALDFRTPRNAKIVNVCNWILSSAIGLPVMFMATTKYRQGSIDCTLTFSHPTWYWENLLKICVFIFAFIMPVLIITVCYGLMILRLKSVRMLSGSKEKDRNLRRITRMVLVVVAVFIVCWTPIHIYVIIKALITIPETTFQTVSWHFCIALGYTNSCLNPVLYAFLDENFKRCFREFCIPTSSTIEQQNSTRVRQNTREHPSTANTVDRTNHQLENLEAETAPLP
Sequence of 5-hydroxytryptamine 1D receptor (Q8MI13 whole entry): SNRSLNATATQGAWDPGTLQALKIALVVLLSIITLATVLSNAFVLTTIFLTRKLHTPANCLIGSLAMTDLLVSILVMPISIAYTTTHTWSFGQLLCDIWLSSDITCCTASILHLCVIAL
Sequence of Histamine H1 receptor (P31390 whole entry): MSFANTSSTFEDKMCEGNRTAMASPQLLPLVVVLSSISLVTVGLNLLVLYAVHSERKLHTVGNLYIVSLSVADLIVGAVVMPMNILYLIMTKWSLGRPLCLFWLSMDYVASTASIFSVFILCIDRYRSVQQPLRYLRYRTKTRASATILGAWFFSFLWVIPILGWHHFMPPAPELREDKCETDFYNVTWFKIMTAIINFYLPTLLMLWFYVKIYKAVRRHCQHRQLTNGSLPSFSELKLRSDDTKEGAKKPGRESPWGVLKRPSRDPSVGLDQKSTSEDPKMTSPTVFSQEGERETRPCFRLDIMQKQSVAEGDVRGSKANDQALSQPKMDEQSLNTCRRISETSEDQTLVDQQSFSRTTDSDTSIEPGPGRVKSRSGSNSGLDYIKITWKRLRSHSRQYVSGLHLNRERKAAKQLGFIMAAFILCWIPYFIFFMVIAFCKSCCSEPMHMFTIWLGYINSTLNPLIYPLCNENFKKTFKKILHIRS
Sequence of Cysteinyl leukotriene receptor 1 (Q2NNR5 whole entry): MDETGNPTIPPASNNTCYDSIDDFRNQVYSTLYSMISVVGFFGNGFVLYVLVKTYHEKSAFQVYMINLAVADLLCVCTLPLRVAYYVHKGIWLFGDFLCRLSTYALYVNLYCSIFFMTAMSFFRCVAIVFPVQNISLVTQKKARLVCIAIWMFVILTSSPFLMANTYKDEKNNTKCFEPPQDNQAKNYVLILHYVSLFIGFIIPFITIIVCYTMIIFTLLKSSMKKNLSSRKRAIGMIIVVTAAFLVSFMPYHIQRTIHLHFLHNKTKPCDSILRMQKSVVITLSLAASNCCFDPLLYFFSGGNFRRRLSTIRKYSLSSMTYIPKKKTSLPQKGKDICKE
Sequence of Sigma non-opioid intracellular receptor 1 (Q9R0C9 whole entry): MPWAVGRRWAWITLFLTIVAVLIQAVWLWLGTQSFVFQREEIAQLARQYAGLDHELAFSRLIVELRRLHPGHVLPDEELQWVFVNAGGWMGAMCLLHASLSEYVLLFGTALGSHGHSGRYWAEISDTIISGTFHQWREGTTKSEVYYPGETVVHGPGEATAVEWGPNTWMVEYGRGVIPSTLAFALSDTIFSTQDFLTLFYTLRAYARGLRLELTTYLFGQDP
Sequence of 5-hydroxytryptamine receptor 1B (P28564 whole entry): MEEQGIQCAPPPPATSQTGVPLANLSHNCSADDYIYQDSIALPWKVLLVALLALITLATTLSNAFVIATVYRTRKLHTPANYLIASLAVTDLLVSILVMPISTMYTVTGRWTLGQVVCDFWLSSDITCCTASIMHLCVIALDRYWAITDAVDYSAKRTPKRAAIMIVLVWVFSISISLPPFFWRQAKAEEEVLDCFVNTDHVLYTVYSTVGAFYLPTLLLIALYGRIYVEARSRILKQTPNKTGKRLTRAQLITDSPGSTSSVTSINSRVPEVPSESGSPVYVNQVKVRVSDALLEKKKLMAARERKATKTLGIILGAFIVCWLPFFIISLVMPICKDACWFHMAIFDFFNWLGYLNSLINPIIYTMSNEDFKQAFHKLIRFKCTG
Sequence of Glycine amidinotransferase, mitochondrial (P50442 whole entry): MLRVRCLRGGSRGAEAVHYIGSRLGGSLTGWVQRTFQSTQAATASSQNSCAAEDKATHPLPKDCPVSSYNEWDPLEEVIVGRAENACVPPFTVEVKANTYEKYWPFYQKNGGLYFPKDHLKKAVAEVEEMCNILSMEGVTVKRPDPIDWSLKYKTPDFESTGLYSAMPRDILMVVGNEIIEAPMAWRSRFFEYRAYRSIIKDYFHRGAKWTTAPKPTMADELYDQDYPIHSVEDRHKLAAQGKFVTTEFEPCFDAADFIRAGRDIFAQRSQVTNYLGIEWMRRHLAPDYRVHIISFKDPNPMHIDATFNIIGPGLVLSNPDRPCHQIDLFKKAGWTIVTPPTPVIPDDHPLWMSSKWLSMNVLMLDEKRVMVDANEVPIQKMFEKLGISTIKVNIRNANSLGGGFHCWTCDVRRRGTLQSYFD
Sequence of Alpha-2C adrenergic receptor (P22086 whole entry): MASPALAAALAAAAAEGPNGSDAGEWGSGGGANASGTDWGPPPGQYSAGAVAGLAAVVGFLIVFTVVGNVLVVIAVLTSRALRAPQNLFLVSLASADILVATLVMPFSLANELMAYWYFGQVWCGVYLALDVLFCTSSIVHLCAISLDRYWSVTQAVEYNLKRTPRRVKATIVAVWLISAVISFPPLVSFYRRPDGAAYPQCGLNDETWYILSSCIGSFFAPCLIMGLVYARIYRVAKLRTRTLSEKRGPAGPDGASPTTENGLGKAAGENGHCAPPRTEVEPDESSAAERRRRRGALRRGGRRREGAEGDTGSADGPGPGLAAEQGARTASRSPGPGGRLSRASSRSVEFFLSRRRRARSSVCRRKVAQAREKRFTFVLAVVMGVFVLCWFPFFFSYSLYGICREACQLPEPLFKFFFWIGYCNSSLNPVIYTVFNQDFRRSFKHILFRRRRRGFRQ
Sequence of Muscarinic acetylcholine receptor M3 (P08483 whole entry): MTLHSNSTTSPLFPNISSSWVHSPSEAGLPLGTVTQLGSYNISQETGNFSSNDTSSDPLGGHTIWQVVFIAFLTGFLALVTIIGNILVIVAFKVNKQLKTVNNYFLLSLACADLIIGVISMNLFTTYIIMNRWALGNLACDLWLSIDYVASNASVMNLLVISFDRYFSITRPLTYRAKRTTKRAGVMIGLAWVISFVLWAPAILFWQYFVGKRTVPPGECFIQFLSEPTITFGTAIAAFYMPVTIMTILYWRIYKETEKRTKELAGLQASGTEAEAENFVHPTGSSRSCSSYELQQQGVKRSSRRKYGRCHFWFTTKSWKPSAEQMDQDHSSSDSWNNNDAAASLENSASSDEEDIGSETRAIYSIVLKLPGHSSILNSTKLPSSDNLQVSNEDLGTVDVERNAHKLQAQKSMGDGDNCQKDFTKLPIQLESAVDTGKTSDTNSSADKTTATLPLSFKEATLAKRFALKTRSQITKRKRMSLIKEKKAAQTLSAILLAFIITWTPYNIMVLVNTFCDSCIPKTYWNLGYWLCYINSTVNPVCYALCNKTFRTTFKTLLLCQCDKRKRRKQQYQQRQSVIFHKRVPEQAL

With c1cc2c(c(N3CCNCC3)c1)OCCO2 [1-(2,3-Dihydro-benzo[1,4]dioxin-5-yl)-piperazine] the Ki [1] was 1.3 µM, the Ki [2] was > 10 µM and the Ki [3] was > 10 µM. The Ki [4] was 0.052 µM, the Ki [5] was 0.42 µM and the Ki [6] was 1.1 µM. For the same molecule, the Ki [7] was > 10 µM, the Ki [8] was > 10 µM and the Ki [9] was > 10 µM. The Ki [10] was > 10 µM, the Ki [11] was > 10 µM and the Ki [12] was 9.3 µM. For the same molecule, the Ki [13] was 0.79 µM, the Ki [14] was > 10 µM and the Ki [15] was 0.39 µM. For the same molecule, the Ki [16] was > 10 µM, the Ki [17] was > 10 µM and the Ki [18] was > 10 µM. For the same molecule, the Ki [19] was 1.7 µM, the Ki [20] was > 10 µM and the Ki [21] was > 10 µM. The Ki [22] was 3.1 µM, the Ki [23] was > 10 µM and the Ki [24] was > 10 µM. The Ki [25] was 3.9 µM, the Ki [26] was 0.081 µM and the Ki [27] was > 10 µM.
